The supplement of paper PMC10307832

Key:
Assay in all cases: relative viability (nuclei count vs DMSO), 5 days (fraction); higher = more cells survive
LOU-NH91 = test system: LOU-NH91
Summary of the method: (§1)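 Values are medians from duplicate plates. Each reflects relative viability, defined as the nuclei count of treated wells over that of vehicle wells. Lung cancer cell lines in 1536-well plates were pin-tool dosed one day after seeding with one drug alone or with a fixed anchor-drug dose plus five library-drug doses (not always all listed) in √10 steps, then fixed, stained and imaged at 4× after 5 days.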

NCI-H441 = test system: NCI-H441
Summary of the method: as §1

NCI-H3122 = test system: NCI-H3122
Summary of the method: as §1

NCI-H727 = test system: NCI-H727
Summary of the method: as §1

BEN = test system: BEN
Summary of the method: as §1

HCC-44 = test system: HCC-44
Summary of the method: as §1

NCI-H647 = test system: NCI-H647
Summary of the method: as §1

NCI-H2126 = test system: NCI-H2126
Summary of the method: as §1

NCI-H650 = test system: NCI-H650
Summary of the method: as §1

NCI-H838 = test system: NCI-H838
Summary of the method: as §1

NCI-H596 = test system: NCI-H596
Summary of the method: as §1

NCI-H1993 = test system: NCI-H1993
Summary of the method: as §1

LCLC-103H = test system: LCLC-103H
Summary of the method: as §1

NCI-H2347 = test system: NCI-H2347
Summary of the method: as §1

NCI-H2023 = test system: NCI-H2023
Summary of the method: as §1

201T = test system: 201T
Summary of the method: as §1

NCI-H2087 = test system: NCI-H2087
Summary of the method: as §1

HARA = test system: HARA
Summary of the method: as §1

NCI-H23 = test system: NCI-H23
Summary of the method: as §1

EMC-BAC-2 = test system: EMC-BAC-2
Summary of the method: as §1

In the case of `Cc1sc2c(c1C)C(c1ccc(Cl)cc1)=N[C@@H](CC(=O)OC(C)(C)C)c1nnc(C)n1-2` [JQ1] + C[C@@H](Oc1cc(-c2cnn(C3CCNCC3)c2)cnc1N)c1c(Cl)ccc(F)c1Cl [Crizotinib] (partner 1 µM), the relative viability (LOU-NH91; first compound 0.04 µM) is reported as 0.719, the relative viability (LOU-NH91; first compound 0.1265 µM) is reported as 0.693 and the relative viability (LOU-NH91; first compound 0.4 µM) is reported as 0.531. For the same compound, the relative viability (LOU-NH91; first compound 1.265 µM) was 0.53, the relative viability (LOU-NH91; first compound 4 µM) was 0.419 and the relative viability (NCI-H441; first compound 0.04 µM) was 0.813. For the same compound, the relative viability (NCI-H441; first compound 0.1265 µM) was 0.616, the relative viability (NCI-H441; first compound 0.4 µM) was 0.713 and the relative viability (NCI-H441; first compound 1.265 µM) was 0.297. It also gave a relative viability (NCI-H441; first compound 4 µM) of 0.221, a relative viability (NCI-H3122; first compound 0.04 µM) of 0.312 and a relative viability (NCI-H3122; first compound 0.1265 µM) of 0.315. For the same compound, the relative viability (NCI-H3122; first compound 0.4 µM) was 0.354, the relative viability (NCI-H3122; first compound 1.265 µM) was 0.323 and the relative viability (NCI-H3122; first compound 4 µM) was 0.413. It also gave a relative viability (NCI-H727; first compound 0.04 µM) of 0.823, a relative viability (NCI-H727; first compound 0.1265 µM) of 1.02 and a relative viability (NCI-H727; first compound 0.4 µM) of 0.631. It also gave a relative viability (NCI-H727; first compound 1.265 µM) of 0.338, a relative viability (NCI-H727; first compound 4 µM) of 0.362 and a relative viability (BEN; first compound 0.04 µM) of 0.67. For the same compound, the relative viability (BEN; first compound 0.1265 µM) was 0.84, the relative viability (BEN; first compound 0.4 µM) was 0.51 and the relative viability (BEN; first compound 1.265 µM) was 0.335. For the same compound, the relative viability (BEN; first compound 4 µM) was 0.229, the relative viability (HCC-44; first compound 0.04 µM) was 0.822 and the relative viability (HCC-44; first compound 0.1265 µM) was 0.623. The relative viability (HCC-44; first compound 0.4 µM) was 0.397, the relative viability (HCC-44; first compound 1.265 µM) was 0.277 and the relative viability (HCC-44; first compound 4 µM) was 0.243. For the same compound, the relative viability (NCI-H647; first compound 0.04 µM) was 1.03, the relative viability (NCI-H647; first compound 0.1265 µM) was 0.486 and the relative viability (NCI-H647; first compound 0.4 µM) was 0.276. For the same compound, the relative viability (NCI-H647; first compound 1.265 µM) was 0.0835, the relative viability (NCI-H647; first compound 4 µM) was 0.0629 and the relative viability (NCI-H2126; first compound 0.04 µM) was 1.04. It also gave a relative viability (NCI-H2126; first compound 0.1265 µM) of 0.987, a relative viability (NCI-H2126; first compound 0.4 µM) of 0.901 and a relative viability (NCI-H2126; first compound 1.265 µM) of 0.966. The relative viability (NCI-H2126; first compound 4 µM) was 0.754, the relative viability (NCI-H650; first compound 0.04 µM) was 0.7 and the relative viability (NCI-H650; first compound 0.1265 µM) was 0.445. The relative viability (NCI-H650; first compound 0.4 µM) was 0.343, the relative viability (NCI-H650; first compound 1.265 µM) was 0.174 and the relative viability (NCI-H650; first compound 4 µM) was 0.195. It also gave a relative viability (NCI-H838; first compound 0.04 µM) of 0.814, a relative viability (NCI-H838; first compound 0.1265 µM) of 0.546 and a relative viability (NCI-H838; first compound 0.4 µM) of 0.415. The relative viability (NCI-H838; first compound 1.265 µM) was 0.27, the relative viability (NCI-H838; first compound 4 µM) was 0.172 and the relative viability (NCI-H596; first compound 0.04 µM) was 0.977. The relative viability (NCI-H596; first compound 0.1265 µM) was 0.85, the relative viability (NCI-H596; first compound 0.4 µM) was 0.472 and the relative viability (NCI-H596; first compound 1.265 µM) was 0.498. For the same compound, the relative viability (NCI-H596; first compound 4 µM) was 0.432, the relative viability (NCI-H1993; first compound 0.04 µM) was 0.834 and the relative viability (NCI-H1993; first compound 0.1265 µM) was 0.774. The relative viability (NCI-H1993; first compound 0.4 µM) was 0.728, the relative viability (NCI-H1993; first compound 1.265 µM) was 0.799 and the relative viability (NCI-H1993; first compound 4 µM) was 0.698. The relative viability (LCLC-103H; first compound 0.04 µM) was 1, the relative viability (LCLC-103H; first compound 0.1265 µM) was 0.94 and the relative viability (LCLC-103H; first compound 0.4 µM) was 0.847. The relative viability (LCLC-103H; first compound 1.265 µM) was 0.612, the relative viability (LCLC-103H; first compound 4 µM) was 0.506 and the relative viability (NCI-H2347; first compound 0.04 µM) was 0.673. It also gave a relative viability (NCI-H2347; first compound 0.1265 µM) of 0.549, a relative viability (NCI-H2347; first compound 0.4 µM) of 0.646 and a relative viability (NCI-H2347; first compound 1.265 µM) of 0.555. It also gave a relative viability (NCI-H2347; first compound 4 µM) of 0.431, a relative viability (NCI-H2023; first compound 0.04 µM) of 0.544 and a relative viability (NCI-H2023; first compound 0.1265 µM) of 0.543. It also gave a relative viability (NCI-H2023; first compound 0.4 µM) of 0.485, a relative viability (NCI-H2023; first compound 1.265 µM) of 0.227 and a relative viability (NCI-H2023; first compound 4 µM) of 0.158. The relative viability (201T; first compound 0.04 µM) was 1.05, the relative viability (201T; first compound 0.1265 µM) was 0.882 and the relative viability (201T; first compound 0.4 µM) was 0.93. It also gave a relative viability (201T; first compound 1.265 µM) of 0.73, a relative viability (201T; first compound 4 µM) of 0.602 and a relative viability (NCI-H2087; first compound 0.04 µM) of 0.901. For the same compound, the relative viability (NCI-H2087; first compound 0.4 µM) was 0.862, the relative viability (NCI-H2087; first compound 1.265 µM) was 0.602 and the relative viability (NCI-H2087; first compound 4 µM) was 0.344. For the same compound, the relative viability (HARA; first compound 0.04 µM) was 0.945, the relative viability (HARA; first compound 0.1265 µM) was 0.714 and the relative viability (HARA; first compound 0.4 µM) was 0.337. For the same compound, the relative viability (HARA; first compound 1.265 µM) was 0.366, the relative viability (HARA; first compound 4 µM) was 0.308 and the relative viability (NCI-H23; first compound 0.04 µM) was 0.441. It also gave a relative viability (NCI-H23; first compound 0.1265 µM) of 0.61, a relative viability (NCI-H23; first compound 0.4 µM) of 0.304 and a relative viability (NCI-H23; first compound 1.265 µM) of 0.163. It also gave a relative viability (NCI-H23; first compound 4 µM) of 0.154, a relative viability (EMC-BAC-2; first compound 0.04 µM) of 0.737 and a relative viability (EMC-BAC-2; first compound 0.1265 µM) of 0.651. For the same compound, the relative viability (EMC-BAC-2; first compound 0.4 µM) was 0.504, the relative viability (EMC-BAC-2; first compound 1.265 µM) was 0.43 and the relative viability (EMC-BAC-2; first compound 4 µM) was 0.315.
